Data taken from PMC8901748, “A novel prostaglandin E receptor 4 (EP4) small molecule antagonist induces articular cartilage regeneration” (Cell Discovery, 2022).

Key:
[1] = system: human articular cartilage explants; assay: Human articular cartilage explant culture (S.O. staining, DMMB assay, qRT-PCR, immunohistochemistry); format: cell-based
Description: Human articular cartilage explants of OA patients undergoing total knee replacement surgery were collected (3 mm × 3 mm), with the approval of the Human Ethics Committee of Shanghai Sixth People’s Hospital (2021-048). The full thickness cartilage tissue samples were harvested from tibia plateau avoiding subchondral bone. We control the quality of the explants according to the principle mentioned below. (1) The human articular cartilage explants were harvested from the relatively intact region of the tibia plateau. (2) The explants from different patients were cut from the same position of tibia plateau avoiding subchondral bone. (3) The explants were cut in the size of 3 mm × 3 mm for the DMMB assay and the S.O. staining. (4) To avoid inter-patient and intra-patient sample heterogeneous, explants used within the same drug experiment (vehicle and treatment) must be collected in locations in close proximity and from the same patient. Each explant in the groups that treated with the same drug was from the same patient. The cartilage explants for Safranin-O/Fast-green (S.O.) staining and immunofluorescence were fixed in 4% paraformaldehyde (PFA) (wt/vol) overnight at 4 °C, embedded in paraffin, sliced (7 μm) and mounted on positively charged slides. The cartilage explants (3 mm × 3 mm) for DMMB assay and S.O. staining were harvested and placed in 24-well plates and cultured in 1 ml of serum-free F12 culture media for 24 h. n ≥ 4 patients were assessed. The media was then replaced with F12 culture media containing serum, added 1 ng/ml IL-1β, Celecoxib, Grapiprant, HL-43, and explants were cultured for a further 7 days. The culture media was collected for the release of glycosaminoglycans. To quantify GAGs, media were mixed with DMMB in formate buffer and absorbance at 535 nm was determined using a Spectramax plate reader (Molecular Devices, Sunnyvale, CA). […] We calculated the proteoglycan staining area using Image J with a region of interest of a 1 × 1 mm square, drawn at the edge of the cartilage surface under 10× objective. […]

[2] = system: STAT-Luc in ATDC5 cells; assay: STAT-Luc luciferase reporter assay; format: cell-based, mouse; conditions: 2 ng/ml IL-1β, 30 μM HL-43, 6 h
Procedure: Six firefly luciferase reporters were used in the Luciferase assay, including CRE-Luc (PathDetect CRE cis-Reporting System; Stratagene, La Jolla CA) driven by a basic promoter (TATA box) plus four repeats of CRE; Sox9 promoter-Luc contains human SOX9 proximal promoter region (−1034 bp to +67 bp)[45]; 4 × 48-p89-Luc, mouse Col2a1 minimal promoter. AP-1-Luc, Nf-κb-Luc, STAT-Luc were obtained from Stratagene. Chondrocytes were cultured in 24-well plates and 300 ng firefly luciferase reporter constructs were transiently transfected using transfection reagent TransExellent-DNA (Cenji Biotech Inc, China) following manufacturer’s instruction, and 15 ng of the Copia-Renilla luciferase reporter was co-transfected as a normalization control. Cells were treated with the indicated reagents for 48 h after transfection. The Dual-Luciferase measurements were performed in triplicate using the Luciferase assay kit (Promega) and a LUMIstar Omega luminometer (BMG Labtech, Mornington, Australia).

[3] = system: Mmp3, Mmp13, Col2, p-CREB, p-STAT3, p-p65, IκBα in primary mouse chondrocytes; assay: Western blotting in primary articular chondrocytes; format: cell-based
Procedure: ATDC5 cell line was purchased from Riken BioResource Center (Tsukuba, Japan) and grown in a 1:1 mixture of DMEM/F12 medium (Corning, 10-092-CVR) supplemented with 5% fetal bovine serum (Gibco, 10099, USA) and 1% penicillin-streptomycin solution (Life Technologies). Cells were maintained at 37 °C under 5% CO2. Primary chondrocytes were obtained from knee joint cartilage of newborn mice. Knee joints were dissected from the tibia plateau and femoral condyle articular cartilage of mouse pups and digested in 0.1% collagenase type II (Sigma) overnight at 37 °C and chondrocytes were harvested by centrifugation. Primary chondrocytes were cultured at a density of 5 × 10^3 cells per ml at 37 °C with 5% CO2. DMEM/F12 medium with 10% fetal bovine serum (FBS) and 1% penicillin–streptomycin was used to culture the primary chondrocytes. Chondrogenic differentiation were induced with chondrogenic medium, which contains insulin-transferrin-selenium (ITS) (Sigma, I3146), 10 ng/ml TGF-β3 (PEPROTECH, 100-36E, USA), 100 nM Dexamethasone (Sigma, D4902), 50 μg/ml VC (Sigma), 1 mM sodium pyruvate (Sigma) and 40 μg/ml proline (Sigma), and/or treatment with rmIL-1β (R&D, 401-ML/CF), TNFα (PEPROTECH, 300-01A-50) in DMEM/F12 for indicated days. Western blotting was performed according to standard protocols. Antibodies used were: rabbit anti-Mmp3 (1:1000, HuaBio), rabbit anti-Mmp13 (1:500, abcam, ab39012), rabbit anti-p-CREB (1:2000, Cell Signaling Technology, 87G3), rabbit anti-CREB (1:2000, Cell Signaling Technology, 48H2), mouse anti-GAPDH (1:5000; Sigma-Aldrich, G8795), rabbit anti-Col2 (Abcam, Ab34712), rabbit anti-STAT3 (1:2000; Abcam, ab68153), rabbit anti-p-STAT3 (Y705) (1:2000; Abcam, ab76315), rabbit anti -p65 (1:1000; CST, 3034), rabbit anti-p-p65 (1:1000; CST, 3033), and rabbit anti-IκBα (1:1000; Abways, CY5026).

[4] = Preliminary pharmacokinetic studies in CD1 mice; format: in vivo
Procedure: To evaluate the preclinical pharmacokinetic (PK) profiles of compound HL-43 and HL-66, 36 male CD1 mice were randomly divided into four groups for PK studies. […] Blood samples were collected at 0.083, 0.25, 0.5, 1, 2, 4, 8, 12, and 24 h after administration (n = 3). Then the whole blood was centrifuged at 5500 × g for 15 min at 4 °C. After suitable sample preparation, the concentration of HL-43 and HL-66 in plasma sample was determined by Agilent HPLC-MS/MS system (Agilent Technologies, USA). Pharmacokinetic parameters were calculated by WinNonlin software version 7.0 based on non-compartmental analysis (Pharsight Corporation, Mountain View, USA). Mean plasma concentration-time curves were plotted by GraphPad Prism 7.0 (GraphPad Software Inc., CA, USA).

C[C@H](NC(=O)c1c(-c2ccccc2)nnn1CCOc1ccc(F)cc1)c1ccc(C(=O)O)cc1 [HL-43]
Percentage area of proteoglycan by S.O. staining ([1]; human OA cartilage explants, 1 week): increased with HL-43 treatment in a dose-dependent manner
Immunohistochemistry of ACAN, SOX9, MMP13, COLX ([1]; human cartilage explants): inducted anabolic factors (ACAN and SOX9), and suppressed catabolic factor (MMP13), and hypertrophic marker (COLX)
Expression of anabolic factors (COL2A1, ACAN, SOX9) and catabolic factor (MMP13), qRT-PCR ([1]; human explants, 1 ng/ml IL-1β, 24 h, Celecoxib 10 μM, Grapiprant and HL-43 30 μM): best efficacy
STAT luciferase reporter activity [2]: significantly inhibited
Phosphorylation of CREB by Western blotting ([3]; chondrocytes, 2 ng/ml IL-1β, 100 nM PGE2, 1 h): enhanced by HL-43 in a dose-dependent manner
Mmp3/13 expression by Western blotting ([3]; primary articular chondrocytes, 1 ng/ml IL-1β, 24 h): downregulated Mmp3/13 expression in a dose-dependent manner
Phosphorylation of STAT3 ([3]; primary mouse articular chondrocytes, 2 ng/ml IL-1β, 1 h): reduced the phosphorylation of STAT3
Phosphorylation of p65 and degradation of IκBα ([3]; primary mouse articular chondrocytes, IL-1β, 30 μM HL-43, 1 h): little effects
Col2 expression by Western blotting ([3]; primary mouse chondrocytes, 24 h): dose-dependently induced Col2 expression
AUC0-∞ ([4]; I.V. (5 mg/kg)): 917.2 ng·h/mL
C0 ([4]; I.V. (5 mg/kg)): 1613.6 ng/mL
CL ([4]; I.V. (5 mg/kg)): 18.3 mL/min/kg
Vd ([4]; I.V. (5 mg/kg)): 6.3 L/kg
t1/2 ([4]; I.V. (5 mg/kg)): 4.0 h
AUC0-∞ ([4]; P.O. (1 mg/kg)): 1076.1 ng·h/mL
CL ([4]; P.O. (1 mg/kg)): 76.7 mL/min/kg
Cmax ([4]; P.O. (1 mg/kg)): 270.2 ng/mL
Vd ([4]; P.O. (1 mg/kg)): 21.8 L/kg
t1/2 ([4]; P.O. (1 mg/kg)): 3.3 h
Bioavailability ([4]; oral): 23.7%
